From PubChem BioAssay (NCI) come the findings set out here.

Some test systems named below: UO-31 renal; K-562 leukemia; HT29 colon; MOLT-4 leukemia; RPMI-8226 leukemia; COLO 205 colon; OVCAR-4 ovarian; OVCAR-5 ovarian; SF-268 CNS.
Holding throughout (assay): inhibition of tumour cell growth, NCI panel, 48 h

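48-hour exposure; five concentrations; linearly interpolated endpoints. Abbreviation: GI50, concentration required for 50% inhibition of growth. TGI: concentration producing complete growth inhibition.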

As to `Cc1ccccc1C(CCCO)C(=O)O` (stereo unspecified), the TGI with UO-31 renal, in the assay with K-562 leukemia, with HT29 colon, in the assay with MOLT-4 leukemia, in the assay with RPMI-8226 leukemia and in the assay on COLO 205 colon was greater than 100 µM in each case. The TGI in the assay with OVCAR-4 ovarian, in the assay on OVCAR-5 ovarian and in the assay with SF-268 CNS was greater than 100 µM in each case.
For the compound `COc1cc(OC)c(OC)cc1/C=C/c1nc2ccccc2s1`, the TGI in the assay with UO-31 renal, in the assay on HT29 colon, in the assay on MOLT-4 leukemia, in the assay on RPMI-8226 leukemia, in the assay on COLO 205 colon and in the assay on OVCAR-5 ovarian was greater than 100 µM throughout. Besides, the TGI in the assay on SF-268 CNS is greater than 100 µM.
Regarding `ClCCOCCn1cnc2c(Cl)nc(Cl)nc21`, the GI50 in the assay with UO-31 renal is 13.3 µM; in the assay on K-562 leukemia, 15.9 µM; in the assay with HT29 colon, 19.6 µM; in the assay on MOLT-4 leukemia, 24.7 µM; in the assay on RPMI-8226 leukemia, 18.6 µM; in the assay with COLO 205 colon, 13.2 µM. Further, the values for the GI50 in the assay with OVCAR-4 ovarian, in the assay with OVCAR-5 ovarian and in the assay with SF-268 CNS were 17.3 µM, 15 µM and 6.82 µM, respectively. The TGI with UO-31 renal is 26.7 µM; in the assay on K-562 leukemia it was greater than 100 µM; in the assay on HT29 colon, 73.6 µM; in the assay on MOLT-4 leukemia, greater than 100 µM; with RPMI-8226 leukemia, greater than 100 µM; in the assay with COLO 205 colon it was 27.5 µM. In addition, the TGI in the assay on OVCAR-4 ovarian was 35.5 µM; with OVCAR-5 ovarian, 28.9 µM; in the assay on SF-268 CNS, 20.3 µM.
Regarding `CCOC(=O)C1=C(NC)OCC1=O`, the TGI in the assay with UO-31 renal, in the assay on K-562 leukemia, with HT29 colon, in the assay with RPMI-8226 leukemia, with COLO 205 colon and in the assay with OVCAR-4 ovarian was greater than 100 µM in each case. Moreover, the TGI with OVCAR-5 ovarian and in the assay on SF-268 CNS was greater than 100 µM throughout.
With `O=C(O)CN(CCN(CC(=O)O)CC(=O)O)CC(=O)O.[Mn+2]`, the GI50 with UO-31 renal, in the assay on K-562 leukemia, in the assay with HT29 colon, in the assay with MOLT-4 leukemia, with RPMI-8226 leukemia and with COLO 205 colon was greater than 100 µM throughout. Besides, the GI50 in the assay on OVCAR-4 ovarian, in the assay on OVCAR-5 ovarian and in the assay with SF-268 CNS was greater than 100 µM in each case. The TGI in the assay on UO-31 renal, in the assay on K-562 leukemia, in the assay with HT29 colon, in the assay on MOLT-4 leukemia, in the assay on RPMI-8226 leukemia and in the assay with COLO 205 colon was greater than 100 µM throughout. Also, the TGI in the assay with OVCAR-4 ovarian, with OVCAR-5 ovarian and in the assay with SF-268 CNS was greater than 100 µM throughout.
Turning to `COc1ccc2nc(NC(=O)C(=O)CC(=O)c3ccc([N+](=O)[O-])cc3)sc2c1`, the TGI in the assay on UO-31 renal, in the assay with K-562 leukemia, with HT29 colon, in the assay with MOLT-4 leukemia, in the assay with RPMI-8226 leukemia and in the assay with COLO 205 colon was greater than 100 µM throughout. Also, the TGI with OVCAR-4 ovarian, with OVCAR-5 ovarian and in the assay on SF-268 CNS was greater than 100 µM in each case.
`CC(=O)[CH-]C(=O)c1ccccc1.[C-]#[O+].[C-]#[O+].[Ir]`: the GI50 in the assay with UO-31 renal is greater than 100 µM; in the assay on HT29 colon, greater than 10 µM; in the assay on RPMI-8226 leukemia it was greater than 10 µM; with COLO 205 colon, greater than 100 µM; with OVCAR-4 ovarian, greater than 100 µM; in the assay with OVCAR-5 ovarian, greater than 100 µM. The TGI in the assay on UO-31 renal was greater than 100 µM; in the assay with HT29 colon it was greater than 10 µM; with RPMI-8226 leukemia, greater than 10 µM; with COLO 205 colon it was greater than 100 µM; in the assay on OVCAR-4 ovarian, greater than 100 µM; with OVCAR-5 ovarian it was greater than 100 µM.
Take `CCCC(=O)CC(C)C(=O)C(=O)NC12CC3CC(CC(C3)C1)C2` (stereo unspecified): the TGI with UO-31 renal, in the assay with K-562 leukemia, in the assay with HT29 colon, with MOLT-4 leukemia, in the assay on RPMI-8226 leukemia and with COLO 205 colon was greater than 100 µM each time. Further, the TGI with OVCAR-4 ovarian, with OVCAR-5 ovarian and with SF-268 CNS was greater than 100 µM throughout.
`COc1ccc(-c2nc3ccc(Cc4ccc5nc(-c6ccc(OC)cc6)[nH]c5c4)cc3[nH]2)cc1`: the GI50 is 0.217 µM with UO-31 renal; less than 0.01 µM in the assay with K-562 leukemia; less than 0.01 µM with HT29 colon; less than 0.01 µM in the assay with MOLT-4 leukemia; 0.0425 µM with RPMI-8226 leukemia; less than 0.01 µM in the assay on COLO 205 colon. In addition, the GI50 with OVCAR-4 ovarian is 0.189 µM; in the assay on OVCAR-5 ovarian, 0.182 µM; with SF-268 CNS it was 0.0556 µM. Moreover, the TGI with UO-31 renal worked out at 2.09 µM; with K-562 leukemia, 0.159 µM; with HT29 colon, 0.11 µM; in the assay on MOLT-4 leukemia, 1.29 µM; in the assay on RPMI-8226 leukemia it was 0.326 µM; with COLO 205 colon, 0.184 µM. In addition, the TGI in the assay with OVCAR-4 ovarian amounted to 2.14 µM; with OVCAR-5 ovarian, 2.85 µM; with SF-268 CNS, 1.85 µM.
On to `CCc1ccc(Nc2cc(C)c3ccc(O)cc3n2)cc1`, for which the GI50 in the assay with UO-31 renal was 4.54 µM; in the assay on K-562 leukemia, 3.2 µM; in the assay on HT29 colon it was 3.57 µM; in the assay with MOLT-4 leukemia it was 3.6 µM; in the assay with RPMI-8226 leukemia, 3.19 µM; in the assay with COLO 205 colon, 10.4 µM. The GI50 is 12.4 µM in the assay on OVCAR-4 ovarian, 8.49 µM in the assay with OVCAR-5 ovarian and 11.2 µM in the assay on SF-268 CNS. The TGI is 23 µM with UO-31 renal; 15.4 µM with K-562 leukemia; 12.5 µM in the assay with HT29 colon; 19 µM in the assay with MOLT-4 leukemia; 20.2 µM in the assay with RPMI-8226 leukemia; 24.3 µM in the assay on COLO 205 colon. Also, the TGI in the assay with OVCAR-4 ovarian is 30.9 µM; in the assay on OVCAR-5 ovarian, 21.3 µM; with SF-268 CNS, 30.3 µM.
